Assay results as given in patent US8541418B2, “Inhibitors of polo-like kinase” (Elan Pharmaceutical, Inc., priority 2009, dated 2013).
Like-named read-outs stand apart in the source and are kept apart here.

Columns and labels:
[1] = target: T1, PLK2 (Homo sapiens, UniProt Q9NYY3); assay: Kinase panel screening at InVitrogen, PLK2; settings: 10 μM compound
[2] = target: T2, PLK1 (Homo sapiens, UniProt P53350); assay: PLK TR-FRET peptide assay, PLK1; format: biochemical
[3] = target: T1, PLK2; assay: PLK TR-FRET peptide assay, PLK2; format: biochemical; settings: for IC50: PLK TR-FRET peptide assay, read-out: Plk2 IC50; for relative PLK2 activity of the enantiomers: compared with the opposite enantiomer
[4] = target: PLK3 (Homo sapiens, UniProt Q9H4B4); assay: PLK TR-FRET peptide assay, PLK3; format: biochemical
[5] = target: T2, PLK1; assay: Kinase panel screening at InVitrogen, PLK1; settings: 10 μM compound
[6] = GST-PLK3, 15 min reaction, read-out: Plk3 IC50

T2 sequence (P53350 whole entry): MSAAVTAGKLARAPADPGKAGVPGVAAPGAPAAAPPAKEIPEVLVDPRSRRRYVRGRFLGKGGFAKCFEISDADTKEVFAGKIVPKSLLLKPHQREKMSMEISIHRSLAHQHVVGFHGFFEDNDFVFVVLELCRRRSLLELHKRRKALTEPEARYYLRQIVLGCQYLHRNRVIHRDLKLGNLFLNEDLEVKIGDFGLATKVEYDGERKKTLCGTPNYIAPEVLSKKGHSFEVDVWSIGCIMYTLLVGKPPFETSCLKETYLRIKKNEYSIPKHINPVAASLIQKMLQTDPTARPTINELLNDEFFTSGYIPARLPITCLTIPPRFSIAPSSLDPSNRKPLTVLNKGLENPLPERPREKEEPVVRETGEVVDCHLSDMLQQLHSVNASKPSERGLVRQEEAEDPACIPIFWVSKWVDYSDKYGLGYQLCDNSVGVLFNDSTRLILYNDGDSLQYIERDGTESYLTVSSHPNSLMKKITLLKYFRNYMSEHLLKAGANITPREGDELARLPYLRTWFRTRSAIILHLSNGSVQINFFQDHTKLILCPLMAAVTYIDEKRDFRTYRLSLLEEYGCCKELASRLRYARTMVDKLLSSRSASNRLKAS
T1 sequence (Q9NYY3 whole entry): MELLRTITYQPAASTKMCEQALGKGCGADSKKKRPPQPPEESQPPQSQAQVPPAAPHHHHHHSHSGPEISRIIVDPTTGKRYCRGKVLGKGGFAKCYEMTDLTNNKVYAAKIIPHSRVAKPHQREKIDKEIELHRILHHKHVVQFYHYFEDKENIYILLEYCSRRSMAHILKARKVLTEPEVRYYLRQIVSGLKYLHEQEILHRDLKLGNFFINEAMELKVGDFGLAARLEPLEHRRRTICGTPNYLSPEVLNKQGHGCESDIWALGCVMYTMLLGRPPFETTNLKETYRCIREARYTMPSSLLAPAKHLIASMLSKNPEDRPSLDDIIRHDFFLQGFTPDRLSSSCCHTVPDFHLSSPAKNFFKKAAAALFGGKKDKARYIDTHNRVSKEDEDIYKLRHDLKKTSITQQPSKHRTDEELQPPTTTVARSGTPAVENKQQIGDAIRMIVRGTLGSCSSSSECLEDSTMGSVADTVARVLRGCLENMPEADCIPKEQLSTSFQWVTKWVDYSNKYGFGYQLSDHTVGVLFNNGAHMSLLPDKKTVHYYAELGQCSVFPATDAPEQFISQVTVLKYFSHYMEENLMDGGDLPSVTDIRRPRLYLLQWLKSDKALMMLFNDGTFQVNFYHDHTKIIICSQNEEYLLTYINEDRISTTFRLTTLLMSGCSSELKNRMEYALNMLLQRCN
Chain of PLK3 (Q9H4B4 whole entry): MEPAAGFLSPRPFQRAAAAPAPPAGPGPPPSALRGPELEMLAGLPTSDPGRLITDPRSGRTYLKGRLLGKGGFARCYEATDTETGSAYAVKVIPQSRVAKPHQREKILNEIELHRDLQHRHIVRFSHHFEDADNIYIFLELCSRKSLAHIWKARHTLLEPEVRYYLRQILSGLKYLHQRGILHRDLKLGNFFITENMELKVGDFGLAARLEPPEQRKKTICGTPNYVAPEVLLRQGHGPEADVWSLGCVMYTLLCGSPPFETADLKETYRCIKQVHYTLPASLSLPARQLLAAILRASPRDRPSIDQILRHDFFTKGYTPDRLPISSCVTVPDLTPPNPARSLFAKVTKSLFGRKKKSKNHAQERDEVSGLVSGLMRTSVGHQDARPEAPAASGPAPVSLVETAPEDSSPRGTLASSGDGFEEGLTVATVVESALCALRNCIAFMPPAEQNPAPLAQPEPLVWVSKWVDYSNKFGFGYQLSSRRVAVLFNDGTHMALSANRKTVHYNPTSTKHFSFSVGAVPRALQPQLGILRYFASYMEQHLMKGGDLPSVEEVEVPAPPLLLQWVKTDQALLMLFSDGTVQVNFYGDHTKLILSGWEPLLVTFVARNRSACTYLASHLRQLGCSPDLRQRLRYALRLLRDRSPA

IC50 ([2]; GST-PLK1, 60 min reaction) | IC50 ([3]; GST-PLK2, 60 min reaction) | IC50 [4, 6] | IC50 ([2]; GST-PLK1) | IC50 ([3]; GST-PLK2) | IC50 ([4]; GST-PLK3, read-out: Plk3 IC50) | Compound | other results
– | – | – | – | – | – | CC[C@@H]1C(=O)N(C)c2cnc(-n3ccnc3-c3ccccc3)nc2N1C1CCCC1 [Example 26, (R)-8-cyclopentyl-7-ethyl-5-methyl-2-(2-phenyl-1H-imidazol-1-yl)-7,8-dihydropteridin-6(5H)-one] | activity against PLK2 in kinase panel [1]: potent
< 1 µM | < 1 µM | < 1 µM | – | – | – | CC[C@@H]1C(=O)N(C)c2cnc(-n3ccnc3-c3cscn3)nc2N1C1CCCC1 [Example 68, (R)-8-cyclopentyl-7-ethyl-5-methyl-2-(2-(thiazol-4-yl)-1H-imidazol-1-yl)-7,8-dihydropteridin-6(5H)-one] | activity against PLK2 in kinase panel [1]: potent; activity against PLK1 in kinase panel [5]: potent
– | – | – | – | – | – | CC[C@@]12CCCN1c1nc(-n3ccnc3-c3ccccc3)ncc1N(C)C2=O [Example 76, (S)-6a-ethyl-5-methyl-2-(2-phenyl-1H-imidazol-1-yl)-6a,7,8,9-tetrahydropyrrolo[2,1-h]pteridin-6(5H)-one] | activity against PLK2 in kinase panel [1]: potent; activity against PLK1 in kinase panel [5]: potent
> 50 µM | < 1 µM | > 50 µM | – | – | – | CC[C@@H]1C(=O)N(C)c2cnc(-c3sc(Br)nc3-c3ccc(F)cc3)nc2N1C(C)C [Example 347, (R)-2-(2-bromo-4-(4-fluorophenyl)thiazol-5-yl)-7-ethyl-8-isopropyl-5-methyl-7,8-dihydropteridin-6(5H)-one] | –
1 to 10 µM | < 1 µM | 1 to 10 µM | – | – | – | CC[C@@H]1C(=O)N(C)c2cnc(-c3scnc3-c3ccn[nH]3)nc2N1C(C)C [Example 348, (R)-2-(4-(1H-pyrazol-5-yl)thiazol-5-yl)-7-ethyl-8-isopropyl-5-methyl-7,8-dihydropteridin-6(5H)-one] | –
< 1 µM | < 1 µM | < 1 µM | – | – | – | CC[C@@H]1C(=O)N(C)c2cnc(-n3ccnc3-c3ccccc3)nc2N1C(C)C1CC1 (stereo partly drawn) [Example 350, (7R)-8-(1-cyclopropylethyl)-7-ethyl-5-methyl-2-(2-phenyl-1H-imidazol-1-yl)-7,8-dihydropteridin-6(5H)-one] | –
1 to 10 µM | < 1 µM | 1 to 10 µM | – | – | – | CC[C@@H]1C(=O)N(C)c2cnc(-n3ccnc3-c3ccc(F)cc3)nc2N1C(C)C1CC1 (stereo partly drawn) [Example 351, (7R)-8-(1-cyclopropylethyl)-7-ethyl-2-(2-(4-fluorophenyl)-1H-imidazol-1-yl)-5-methyl-7,8-dihydropteridin-6(5H)-one] | –
1 to 10 µM | < 1 µM | 1 to 10 µM | – | – | – | CC[C@@H]1C(=O)N(C)c2cnc(-n3ccnc3C(F)(F)F)nc2N1C1CCCC1 [Example 352, (R)-8-cyclopentyl-7-ethyl-5-methyl-2-(2-(trifluoromethyl)-1H-imidazol-1-yl)-7,8-dihydropteridin-6(5H)-one] | –
1 to 10 µM | < 1 µM | 1 to 10 µM | – | – | – | CC[C@@H]1C(=O)N(C)c2cnc(-c3cn[nH]c3-c3nccs3)nc2N1C1CC(F)(F)C1 [Example 353, (R)-8-(3,3-difluorocyclobutyl)-7-ethyl-5-methyl-2-(5-(thiazol-2-yl)-1H-pyrazol-4-yl)-7,8-dihydropteridin-6(5H)-one] | –
1 to 10 µM | < 1 µM | < 1 µM | – | – | – | CC[C@@H]1C(=O)N(C)c2cnc(-c3sc(C#N)nc3-c3ccc(F)cc3)nc2N1C(C)C [Example 354, (R)-5-(7-ethyl-8-isopropyl-5-methyl-6-oxo-5,6,7,8-tetrahydropteridin-2-yl)-4-(4-fluorophenyl)thiazole-2-carbonitrile] | –
< 1 µM | < 1 µM | 1 to 10 µM | – | – | – | CC[C@@H]1C(=O)N(C)c2cnc(-c3cncs3)nc2N1C1CCCC1 [Example 355, (R)-8-cyclopentyl-7-ethyl-5-methyl-2-(thiazol-5-yl)-7,8-dihydropteridin-6(5H)-one] | –
1 to 10 µM | < 1 µM | 1 to 10 µM | – | – | – | CC[C@@H]1CC[C@@]2(CC)C(=O)N(C)c3cnc(-c4cn[nH]c4-c4cscn4)nc3N12 [Example 356, (6aS,9R)-6a,9-diethyl-5-methyl-2-(5-(thiazol-4-yl)-1H-pyrazol-4-yl)-6a,7,8,9-tetrahydropyrrolo[2,1-h]pteridin-6(5H)-one] | –
< 1 µM | < 1 µM | 1 to 10 µM | – | – | – | CC[C@@H]1C(=O)N(C)c2cnc(-c3cn[nH]c3-c3nccs3)nc2N1C(C)C1CC1 (stereo partly drawn) [Example 357, (7R)-8-(1-cyclopropylethyl)-7-ethyl-5-methyl-2-(5-(thiazol-2-yl)-1H-pyrazol-4-yl)-7,8-dihydropteridin-6(5H)-one] | –
1 to 10 µM | < 1 µM | 1 to 10 µM | – | – | – | CC[C@@H]1C(=O)N(C)c2cnc(-n3ccnc3-c3ccc(F)cc3)nc2N1c1cccc(C#N)c1 [Example 358, (R)-3-(7-ethyl-2-(2-(4-fluorophenyl)-1H-imidazol-1-yl)-5-methyl-6-oxo-6,7-dihydropteridin-8(5H)-yl)benzonitrile] | relative PLK2 activity of the enantiomers [3]: more active compound
> 50 µM | 1 to 10 µM | 10 to 50 µM | – | – | – | CC[C@H]1C(=O)N(C)c2cnc(-n3ccnc3-c3ccc(F)cc3)nc2N1c1cccc(C#N)c1 [Example 359, (S)-3-(7-ethyl-2-(2-(4-fluorophenyl)-1H-imidazol-1-yl)-5-methyl-6-oxo-6,7-dihydropteridin-8(5H)-yl)benzonitrile] | –
< 1 µM | < 1 µM | 1 to 10 µM | – | – | – | CCC1C(=O)N(C)c2cnc(-c3cn[nH]c3-c3nccs3)nc2N1c1ccc(F)cc1 (stereo not drawn) [Example 370] | –
1 to 10 µM | < 1 µM | 1 to 10 µM | – | – | – | CCC1C(=O)N(C)c2cnc(-c3cn[nH]c3-c3nccs3)nc2N1c1cccc(C#N)c1 (stereo not drawn) [Example 372, 3-(7-ethyl-5-methyl-6-oxo-2-(5-(thiazol-2-yl)-1H-pyrazol-4-yl)-6,7-dihydropteridin-8(5H)-yl)benzonitrile] | –
– | – | – | < 1 µM | < 1 µM | < 1 µM | CC[C@@H]1C(=O)N(C)c2cnc(-c3cn[nH]c3-c3nccs3)nc2N1c1ccc(Cl)cc1 [Example 382, (R)-8-(4-chlorophenyl)-7-ethyl-5-methyl-2-(5-(thiazol-2-yl)-1H-pyrazol-4-yl)-7,8-dihydropteridin-6(5H)-one] | relative PLK2 activity of the enantiomers [3]: more active compound
– | – | – | 10 to 50 µM | 1 to 10 µM | > 50 µM | CC[C@H]1C(=O)N(C)c2cnc(-c3cn[nH]c3-c3nccs3)nc2N1c1ccc(Cl)cc1 [Example 383, (S)-8-(4-chlorophenyl)-7-ethyl-5-methyl-2-(5-(thiazol-2-yl)-1H-pyrazol-4-yl)-7,8-dihydropteridin-6(5H)-one] | –
– | – | – | 1 to 10 µM | 1 to 10 µM | 10 to 50 µM | CC[C@@H]1C(=O)N(C)c2cnc(-n3cnc(C(=O)N(C)C)c3)nc2N1C1CCCC1 [Example 384, (R)-1-(8-cyclopentyl-7-ethyl-5-methyl-6-oxo-5,6,7,8-tetrahydropteridin-2-yl)-N,N-dimethyl-1H-imidazole-4-carboxamide] | –
– | – | – | 1 to 10 µM | < 1 µM | 1 to 10 µM | CCC1C(=O)N(C)c2cnc(-n3ccnc3-c3ccc(F)cc3)nc2N1c1ccc(Cl)cc1 (stereo not drawn) [Example 388, 8-(4-chlorophenyl)-7-ethyl-2-(2-(4-fluorophenyl)-1H-imidazol-1-yl)-5-methyl-7,8-dihydropteridin-6(5H)-one] | –
– | – | – | < 1 µM | < 1 µM | < 1 µM | CC[C@@H]1C(=O)N(C)c2cnc(-c3cnsc3-c3ccc(F)cc3)nc2N1c1cccc(C#N)c1 [Example 391, (R)-3-(7-ethyl-2-(5-(4-fluorophenyl)isothiazol-4-yl)-5-methyl-6-oxo-6,7-dihydropteridin-8(5H)-yl)benzonitrile] | relative PLK2 activity of the enantiomers [3]: more active compound
– | – | – | > 50 µM | > 50 µM | > 50 µM | CC[C@H]1C(=O)N(C)c2cnc(-c3cnsc3-c3ccc(F)cc3)nc2N1c1cccc(C#N)c1 [Example 392, (S)-3-(7-ethyl-2-(5-(4-fluorophenyl)isothiazol-4-yl)-5-methyl-6-oxo-6,7-dihydropteridin-8(5H)-yl)benzonitrile] | –
– | – | – | 10 to 50 µM | 1 to 10 µM | > 50 µM | CC[C@H]1C(=O)N(C)c2cnc(-c3cn[nH]c3-c3nccs3)nc2N1c1ccc(F)c(F)c1 [Example 393, (S)-8-(3,4-difluorophenyl)-7-ethyl-5-methyl-2-(5-(thiazol-2-yl)-1H-pyrazol-4-yl)-7,8-dihydropteridin-6(5H)-one] | –
– | – | – | < 1 µM | < 1 µM | 1 to 10 µM | CC[C@@H]1C(=O)N(C)c2cnc(-c3cn[nH]c3-c3nccs3)nc2N1c1ccc(F)c(F)c1 [Example 395, (R)-8-(3,4-difluorophenyl)-7-ethyl-5-methyl-2-(5-(thiazol-2-yl)-1H-pyrazol-4-yl)-7,8-dihydropteridin-6(5H)-one] | relative PLK2 activity of the enantiomers [3]: more active compound
